Ends that are not written are not given here.
Assays:
[1] = system: ARPE-19 cells (SOPT1 and SOPT2); format: cell-based, human; conditions: naloxone 1 mM, 15 min preincubation, FITC-hepcidin 2.5 μM
[2] = system: SOPT2 ([3H]-DADLE uptake in mouse RPE cells); experiment: Inhibition of [3H]-DADLE uptake in mouse primary RPE cells; format: cell-based, mouse (C57/Bl6); conditions: hepcidin 25 μM, [3H]-DADLE 10 nM, 30 min
[3] = system: SOPT1 ([3H]-deltorphin II uptake in mouse RPE cells); experiment: Inhibition/stimulation of [3H]-deltorphin II uptake in mouse primary RPE cells; format: cell-based, mouse (C57/Bl6); conditions: [3H]-deltorphin II 20 nM, 30 min
transferrin = experiment: Transferrin expression; format: cell-based; conditions: mouse RPE; hepcidin treatment; data not shown
ferroportin = conditions: target cells; ref [14]; cited from earlier work
[4] = system: SOPT1 ([3H]-deltorphin II uptake in RPE cells); experiment: Inhibition of [3H]-deltorphin II uptake in human RPE cells; format: cell-based; conditions: [3H]-deltorphin II 20 nM, 30 min
hemojuvelin = experiment: Hemojuvelin expression; format: cell-based; conditions: mouse RPE; hepcidin treatment; data not shown
transferrin receptor 1 = experiment: Transferrin receptor 1 expression; format: cell-based; conditions: mouse RPE; hepcidin treatment; data not shown
ferroportin mRNA [5] = experiment: Ferroportin mRNA levels, real-time RT-PCR; format: cell-based; conditions: mouse primary RPE; hepcidin 2 μg/ml, 8 h; P < 0.001 (Fig. 4)
HFE mRNA = HFE mRNA levels, RT-PCR; format: cell-based; conditions: mouse primary RPE; hepcidin 2 μg/ml, 8 h
[6] = system: SOPT2 ([3H]-DADLE uptake in RPE cells); experiment: Inhibition of [3H]-DADLE uptake in human RPE cells; format: cell-based
ferroportin mRNA [7] = experiment: Ferroportin mRNA levels, semi-quantitative RT-PCR; format: cell-based; conditions: mouse primary RPE; hepcidin 2 μg/ml, 8 h; HPRT1 internal control
SOPT1 = conditions: ref [2]; cited from earlier work
SOPT1 and SOPT2 = conditions: ref [5]; cited from earlier work

Compound: C=CCN1CC[C@]23c4c5ccc(O)c4O[C@H]2C(=O)CC[C@@]3(O)[C@H]1C5 [naloxone]
- effect on FITC-hepcidin uptake (flow cytometry) [1]: did not alter the uptake

Compound: DTHFPICIFCCGCCHRSKCGYCCKT (cysteine pairing not given here) [hepcidin]
- inhibition of DADLE uptake [2]: almost completely inhibited
- inhibition of deltorphin II uptake ([3]; hepcidin 25 μM, mouse primary RPE): almost completely inhibited
- transferrin expression (transferrin): none of these genes was altered
- binding to ferroportin with internalization and degradation (ferroportin): binds to ferroportin on target cells and that this complex gets internalized with subsequent degradation
- dose dependence of deltorphin II uptake inhibition ([4]; RPE cells, Fig. 1B): dose-dependent
- IC50 ([4]; read-out: IC50, inhibition of deltorphin II uptake, ARPE-19 cells, 25 mM HEPES/Tris pH 7.5, 140 mM NaCl, means ± S.E., three independent experiments in duplicate): 420 ± 120 nM
- hemojuvelin expression (hemojuvelin): none of these genes was altered
- transferrin receptor 1 expression (transferrin receptor 1): none of these genes was altered
- ferroportin mRNA levels (real-time RT-PCR) (ferroportin mRNA [5]): decrease in ferroportin mRNA levels was confirmed
- HFE mRNA levels (HFE mRNA): no effect on HFE mRNA levels
- dose dependence of DADLE uptake inhibition ([6]; [3H]-DADLE 10 nM, 30 min, Fig. 1C): dose-dependent
- ferroportin mRNA levels (RT-PCR) (ferroportin mRNA [7]): significant reduction in ferroportin mRNA levels

Compound: Gly-Gly-Ile
- effect on deltorphin II uptake (stimulation) ([3]; mouse RPE cells, Gly-Gly-Ile 1 mM): stimulated deltorphin II uptake
- stimulation of SOPT1 (SOPT1): potent stimulator of SOPT1

Compound: HIV-Tat47–57: exogenous oligopeptide recognized by SOPT1 and SOPT2 (YGRKKRRQRRR; Tat; UniProt P04608 47-57, looked up, fragment)
- recognition by SOPT1 and SOPT2 (SOPT1 and SOPT2): recognize

Compound: [tyrosyl-3,5–^3H(N)]DADLE [[^3H]-DADLE]
- non-mediated diffusional component of uptake ([6]; [3H]-DADLE uptake in presence of 1 mM unlabeled DADLE, pH 7.5): < 5 % of measured total uptake

From PMC3060409 (Biochemical and biophysical research communications, 2011)
